Assays:
RORγt [1] = biological target: T1, RORγt (Homo sapiens, UniProt P51449); assay: Jurkat reporter test (human IL-17 ROR response element luciferase reporter, RORγt vector); assay type: cell-based; conditions: test compound 3 μM; Jurkat cells; read-out: luminescence level inhibitory rate (%) at test compound 3 μM
T1 sequence (P51449 1-497 isoform P51449-2): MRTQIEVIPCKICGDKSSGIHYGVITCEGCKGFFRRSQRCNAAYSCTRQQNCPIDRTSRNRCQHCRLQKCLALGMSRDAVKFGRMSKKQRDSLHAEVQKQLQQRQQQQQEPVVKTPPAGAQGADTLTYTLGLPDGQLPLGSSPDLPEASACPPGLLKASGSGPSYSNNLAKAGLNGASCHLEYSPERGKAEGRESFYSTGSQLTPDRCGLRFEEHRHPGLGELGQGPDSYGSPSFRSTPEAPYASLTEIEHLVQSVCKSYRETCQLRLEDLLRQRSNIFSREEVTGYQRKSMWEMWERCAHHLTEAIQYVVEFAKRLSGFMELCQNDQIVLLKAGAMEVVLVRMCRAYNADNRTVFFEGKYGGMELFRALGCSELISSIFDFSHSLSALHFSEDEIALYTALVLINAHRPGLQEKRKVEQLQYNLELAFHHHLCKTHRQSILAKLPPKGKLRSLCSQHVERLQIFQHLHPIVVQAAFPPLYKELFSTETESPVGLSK
Outline: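 Jurkat cells were electroporated (1350 V, 10 ms, 3 pulses) with the reporter constructs and plated in RPMI with 10% lipid-reduced FCS, 10 mM HEPES pH 7.5 and 5 μM lovastatin. After overnight culture with compound, luciferase activity was measured by luminescence following a 10 min room-temperature incubation with Bright-Glo.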

RORγt [2] = biological target: T1, RORγt; assay: RORγt binding test using fluorescent-labeled synthetic ligand (TR-FRET); conditions: test compound 1 μM; read-out: binding inhibitory rate (%) of fluorescent-labeled synthetic ligand to RORγt at test compound 1 μM
Outline: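 Compound displacement of a fluorescent-labeled synthetic ligand from His-tagged RORγt was read by TR-FRET with a terbium anti-His antibody. Buffer was 20 mM Tris-HCl pH 7.5, 100 mM NaCl, 1 mM DTT and 0.1% BSA, with stocks of 240 nM protein, 12 μM ligand and 8 nM antibody (pre-mix, not final). Incubations were 20 min plus 20 min at room temperature, with excitation at 320 nm, emission at 520 nm and a 100 μs delay.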

RORγt [3] = biological target: T1, RORγt; assay: Cofactor recruitment test (Alpha Screen, biotinylated SRC-1 peptide); assay type: biochemical; conditions: read-out: signal value inhibitory rate (%) at test compound 1 μM
Protocol: Cofactor Recruitment Test
Cofactor recruitment test was performed by Alpha Screen (Histidine Detection Kit, PerkinElmer) method. First, a test compound was diluted with an assay buffer (50 mM Tris-HCl (pH 7.5), 50 mM KCl, 1 mM DTT, 0.1% BSA) and added to a 384 well plate by 5 μL. […] The mixture was stood in a dark place for 1 hr, and the signal value was measured by Envision (PerkinElmer).

| Structure (SMILES) | inhibition at 3 µM (RORγt [1]) [%] | inhibition at 1 µM (RORγt [2]) [%] | inhibition at 1 µM (RORγt [3]) [%] |
| --- | --- | --- | --- |
| CC(C)n1c(=O)n(CC2CC2)c(=O)c2cc(NC(=O)N3CCC[C@@H](NC(=O)c4ccc(C#N)cc4F)C3)ccc21 [Example 219, (3R)-3-((4-cyano-2-fluorobenzoyl)amino)-N-(3-(cyclopropylmethyl)-1-isopropyl-2,4-dioxo-1,2,3,4-tetrahydroquinazolin-6-yl)piperidine-1-carboxamide] | 101 | 102 | 110 |
| CC(C)n1c(=O)n(CC2CC2)c(=O)c2cc(NC(=O)N3CCO[C@@H](C(=O)Nc4cnc(C#N)c(Cl)c4)C3)c(F)cc21 [Example 266, (2R)-N^2-(5-chloro-6-cyanopyridin-3-yl)-N^4-(3-(cyclopropylmethyl)-7-fluoro-1-isopropyl-2,4-dioxo-1,2,3,4-tetrahydroquinazolin-6-yl)morpholine-2,4-dicarboxamide] | 103 | 102 | 108 |
| CC(C)n1c(=O)n(CC2CC2)c(=O)c2cc(NC(=O)N3CCC[C@@H](NC(=O)c4cc(Cl)ccc4F)C3)c(F)cc21 [Example 282, (3R)-3-((5-chloro-2-fluorobenzoyl)amino)-N-(3-(cyclopropylmethyl)-7-fluoro-1-isopropyl-2,4-dioxo-1,2,3,4-tetrahydroquinazolin-6-yl)piperidine-1-carboxamide] | 102 | 102 | 108 |
| CC(C)n1c(=O)n(CC2CC2)c(=O)c2cc(NC(=O)N3CCC[C@@H](NC(=O)c4ccc(C#N)cc4)C3)ccc21 [Example 218, (3R)-3-((4-cyanobenzoyl)amino)-N-(3-(cyclopropylmethyl)-1-isopropyl-2,4-dioxo-1,2,3,4-tetrahydroquinazolin-6-yl)piperidine-1-carboxamide] | 103 | 102 | 111 |
| CC(C)n1c(=O)n(CC2CC2)c(=O)c2cc(NC(=O)N3CCCC(NC(=O)c4ccc(C#N)c(Cl)c4)C3)ccc21 (stereo not drawn) [Example 88, 3-((3-chloro-4-cyanobenzoyl)amino)-N-(3-(cyclopropylmethyl)-1-isopropyl-2,4-dioxo-1,2,3,4-tetrahydroquinazolin-6-yl)piperidine-1-carboxamide] | 102 | 102 | 102 |
| CC(C)n1c(=O)n(CC2CC2)c(=O)c2cc(NC(=O)N3CCO[C@@H](C(=O)Nc4cc(Cl)c(C#N)cc4F)C3)c(F)cc21 [Example 347, (2R)—N^2-(5-chloro-4-cyano-2-fluorophenyl)-N^4-(3-(cyclopropylmethyl)-7-fluoro-1-isopropyl-2,4-dioxo-1,2,3,4-tetrahydroquinazolin-6-yl)morpholine-2,4-dicarboxamide] | 107 | 102 | 107 |
| CCNC(=O)OCc1ccc(C(=O)N[C@@H]2CCCN(C(=O)Nc3cc4c(=O)n(CC5CC5)c(=O)n(C(C)C)c4cc3F)C2)cc1 [Example 315, 4-(((3R)-1-((3-(cyclopropylmethyl)-7-fluoro-1-isopropyl-2,4-dioxo-1,2,3,4-tetrahydroquinazolin-6-yl)carbamoyl)piperidin-3-yl)carbamoyl)benzyl ethylcarbamate] | 108 | 102 | 94 |
| CC(C)n1c(=O)n(CC2CC2)c(=O)c2cc(NC(=O)N3CCO[C@@H](C(=O)Nc4cc(F)c(C#N)cc4F)C3)ccc21 [Example 168, (2R)-N^2-(4-cyano-2,5-difluorophenyl)-N^4-(3-(cyclopropylmethyl)-1-isopropyl-2,4-dioxo-1,2,3,4-tetrahydroquinazolin-6-yl)morpholine-2,4-dicarboxamide] | 102 | 102 | 108 |

Reference: patent publication US10000488B2, “Heterocyclic compound” (TAKEDA PHARMACEUTICAL COMPANY LIMITED, priority 2014, dated 2018)
